Measured values: patent US7544438B2, “Electron mediator, electron mediator immobilized electrode, and biofuel cell using the electrode” (Daiichi Pure Chemicals Co., Ltd, priority 2003, dated 2009)

System: not listed separately
Experiment: Cyclic voltammetry (CV), redox potential of mediator molecule
Format: physicochemical
Conditions: 0.09 mM mediator in Tris buffer solution (pH 8.5); glassy carbon electrode; Ag|AgCl (saturated KCl) reference; 5 mV/s
Excerpt: [Cyclic Voltammetry (CV), Redox Potential of Mediator Molecule]
The obtained voltammogram represents the potential on an abscissa axis and the current on an ordinate axis. The CV involves relatively easy experiments and sharply reflects not only equilibrium parameters such as the redox potential or diffusion information but also kinetic parameters of an electrode reaction or of a chemical reaction in solution. Thus, the CV is a method of electrochemical measurement allowing an intuitive grasp of the electrode reaction.
The CV for mediator evaluation involves measuring in an electrolytic solution consisting of the buffer with various mediators, diaphorase, and NADH added.
A potentiostat mode of Hokuto Denko HZ-3000 was used. A glassy carbon electrode (GDE, electrode area of about 0.083 cm^2) was used as a working electrode. The GDE was polished with an aluminum powder of 0.05 μm and subjected to ultrasonic cleaning in deionized water before every measurement. A three electrode cell was used, and a Pt electrode and an Ag|AgCl (saturated KCl) electrode were used as a counter electrode and a reference electrode, respectively for the measurement. A potential was changed at a rate of 5 mV/s. A measurement sample was subjected to sufficient bubbling with N2 gas before the measurement to remove dissolved oxygen, and the N2 gas overflowed during the measurement. All measurements began from an open circuit potential.
Cyclic voltammograms with (a) in FIGS. 5A to 5F are measurement of 0.09 mM solutions of the various mediators prepared using a Tris buffer solution (pH 8.5).

Question: Which “redox formal potentials (E^0M′) approximated at middle points of oxidation peaks and reduction peaks” value does the source give for CC1=C(CCCC(=O)NCCN)C(=O)c2ccccc2C1=O [AEACPVK3, 2-{3-[N-(2-aminoethyl)aminocarbonyl]propyl}-3-methyl-1,4-naphthoquinone] here?
Answer: −0.32 V

Question: For OC[c-]1cccc1.[Fe+2].c1cc[cH-]c1 [FMA, ferrocene methanol], which “redox formal potentials (E^0M′) approximated at middle points of oxidation peaks and reduction peaks” value is on record?
Answer: 0.23 V

Question: Which “redox formal potentials (E^0M′) approximated at middle points of oxidation peaks and reduction peaks” value does the source give for CC1=CC(=O)c2ccccc2C1=O [VK3, 2-methyl-1,4-naphthoquinone] here?
Answer: −0.28 V

Question: Which “redox formal potentials (E^0M′) approximated at middle points of oxidation peaks and reduction peaks” value does the source give for O=C1c2ccccc2C(=O)c2cc(S(=O)(=O)[O-])ccc21.[Na+] [AQS, sodium anthraquinone-2-sulfonate] here?
Answer: −0.49 V

Question: With CC1=C(CCCC(=O)O)C(=O)c2ccccc2C1=O [CPVK3, 2-(3-carboxypropyl)-3-methyl-1,4-naphthoquinone] as the compound, how does the “redox formal potentials (E^0M′) approximated at middle points of oxidation peaks and reduction peaks” value read?
Answer: −0.32 V

Question: With CC1=C(CCCN)C(=O)c2ccccc2C1=O [APVK3, 2-(3-aminopropyl)-3-methyl-1,4-naphthoquinone] as the compound, how does the “redox formal potentials (E^0M′) approximated at middle points of oxidation peaks and reduction peaks” value read?
Answer: −0.32 V

System: Dp (DIAPHORASE I, [EC 1.6.99.-])
Experiment: Reaction kinetic analysis between diaphorase (Dp) and mediator by CV
Format: biochemical, Bacillus stearothermophilus
Conditions: comparison of FMA with AQS, FIG. 6
Excerpt: A technique of reaction kinetic analysis between an enzyme and a mediator molecule using CV will be described referring to a document (Kazuyoshi Takagi, Kenji Kano, Tokuji Ikeda, J. Electroanal. Chem., 1988, 445, 211-219). Dp catalyses an oxidation reaction of NADH in the presence of an appropriate mediator (Mox) as represented by the following equation (4).
An NADH oxidation rate (νE, ox) may be represented by the following equation (5) on an assumption that an enzyme reaction follows a ping-pong mechanism.
In addition, vE, ox of equation (5) can be approximated as the following equation (6) when Mox concentration is negligibly small ([Mox]<<KM, ox) in the vicinity of the electrode surface.
From the above, kcat, ox/KM, ox clearly represents a reaction rate constant between DPred and Mox. Further, steady state limiting current of catalyst (Is, ox) observed at a more positive potential from the redox potential of the mediator molecule can be represented by the following equation (7).
The reaction rate constant kcat, ox/KM, ox can be estimated from the measured limiting current value using the above equation (7).
On the other hand, cyclic voltammograms with (b) in FIGS. 5A to 5F are measurement results of the above mediator solutions with 0.11 μM of Dp ([…], [EC 1.6.99.-], from Bacillus stearothermophilus, available from Unitika Ltd.) and 4.8 mM of NADH added. […]

Question: Which “reaction rate constant larger than that of the AQS by” value does the source give for OC[c-]1cccc1.[Fe+2].c1cc[cH-]c1 [FMA, ferrocene methanol] here?
Answer: ≥ 1 digit
